Measurements from patent US7939322B2, “Cells expressing pluripotency markers and expressing markers characteristic of the definitive endoderm” (Centocor Ortho Biotech Inc., priority 2008, dated 2011).

How the values were obtained:
[1] = tested on: expanded cells derived from human embryonic stem cell line H9; assay: Real-time PCR of DE and visceral endoderm markers in expanded cells; format: cell-based
Procedure: Real-time PCR amplification and quantitative analysis: Unless otherwise stated, all reagents were purchased from Applied Biosystems. Real-time PCR reactions were performed using the ABI PRISM® 7900 Sequence Detection System. TAQMAN® UNIVERSAL PCR MASTER MIX® (ABI, CA) was used with 20 ng of reverse transcribed RNA in a total reaction volume of 20 μl. Each cDNA sample was run in duplicate to correct for pipetting errors. Primers and FAM-labeled TAQMAN® probes were used at concentrations of 200 nM. The level of expression for each target gene was normalized using a human glyceraldehyde-3-phosphate dehydrogenase (GAPDH) endogenous control previously developed by Applied Biosystems. SOX-17 primers were designed using the PRIMERS program (ABI, CA) and were the following sequences: SOX-17: TGGCGCAGCAGATACCA, AGCGCCTTCCACGACTTG, and […]. After an initial incubation at 50° C. for 2 min followed by 95° C. for 10 min, samples were cycled 40 times in two stages—a denaturation step at 95° C. for 15 sec followed by an annealing/extension step at 60° C. for 1 min. Data analysis was carried out using GENEAMP®7000 Sequence Detection System software. For each primer/probe set, a Ct value was determined as the cycle number at which the fluorescence intensity reached a specific value in the middle of the exponential region of amplification. Relative gene expression levels were calculated using the comparative Ct method. Briefly, for each cDNA sample, the endogenous control Ct value was subtracted from the gene of interest Ct to give the delta Ct value (ΔCt). The normalized amount of target was calculated as 2-ΔCt, assuming amplification to be 100% efficiency. Final data were expressed relative to a calibrator sample.
Cultures derived from the parental human embryonic stem cell line H9 according to the methods described in Example 6 were passaged every 4-7 days. FIG. 5 depicts real-time PCR results for the expanded cells cultured in 2% FBS+DMEM-F12+100 ng/ml of activin-A+20 of WNT3A for three passages. […] There is a clear decrease in DE markers, such as SOX-17 and HNF-3 beta following each passage. […]

[2] = tested on: human embryonic stem cell line H9; assay: Attachment of single human embryonic stem cells on uncoated TCPS with or without ROCK inhibitor; format: cell-based; conditions: 10 μm ROCK inhibitor, 24 hrs after seeding on TCPS, hypoxic (approximately 3% O2), compared to cultures without ROCK inhibitor
Procedure: Cells from the human embryonic stem cell line H9 at passage 35 lines were cultured under hypoxic conditions (approximately 3% O2) for at least three passages. The cells were cultured in MEF-CM supplemented with 8 ng/ml of bFGF and plated on MATRIGEL coated plates according to Example 1. At approximately 60% confluency, the cultures were exposed to TrypLE™ Express solution (Invitrogen, CA) for 5 mins. Released cells were resuspended in DM-F12+2% FBS medium, recovered by centrifugation, and counted using a hemocytometer. The released cells were seeded at 1000-10,000 cells/cm^2 on tissue culture polystyrene (TCPS) flasks and cultured in DM-F12+2% FBS+100 ng/ml activin-A+20 ng/ml WNT-3A+50 ng/ml of IGF-I+0.1 mM mercaptoethanol (Invitrogen, CA), non-essential amino acids (1×, NEAA from Invitrogen, CA)+/−10 μm ROCK inhibitor (Y-27632, Calbiochem, CA) under hypoxic conditions (approximately 3% O2) at 37° C. in a standard tissue culture incubator. The TCPS flaks were not coated with MATRIGEL or other extracellular matrix proteins. The media was changed daily. The first passage cells are referred to as P1. […] EXPRES cells derived using the ROCK inhibitor, Y27632 were designated as EXPRES 15.

[3] = tested on: Mouse Embryo Fibroblast (MEF); assay: Cell cycle analysis of mitomycin treated feeder cells; format: cell-based
Procedure: MEF cells, derived from E13 to 13.5 mouse embryos, were purchased from Charles River. MEF cells were expanded in DMEM medium supplemented with 10% FBS (Hyclone), 2 mM glutamine, and 100 mM MEM nonessential amino acids. Sub-confluent MEF cell cultures were treated with 10 μg/ml mitomycin C (Sigma, St. Louis, Mo.) for 3 h to arrest cell division, then trypsinized and plated at 2×10^4/cm2 on 0.1% bovine gelatin-coated dishes. MEF cells from passage two through four were used as feeder layers. […] For cell cycle analysis, cells were stained with 7AAD, and analyzed on FACS Array.

EXPRES 02 cells = assay: CXCR4 expression by FACS after DE differentiation; format: cell-based, human; conditions: passage 14, day 4; 100 nM GSK-3B inhibitor IX with 0.5% FBS, 20 ng/ml WNT-3a, 100 ng/ml activin-A (about 40% in earlier protocol without inhibitor)
Procedure: (§1) Adhered human embryonic stem cells were removed from culture plates by a five-minute incubation with TrypLE™ Express solution (Invitrogen, CA). Released cells were resuspended in human embryonic stem cell culture medium and recovered by centrifugation, followed by washing and resuspending the cells in a staining buffer consisting of 2% BSA, 0.05% sodium azide in PBS (Sigma, Mo.). As appropriate, the cells were Fc-receptor blocked for 15 minutes using a 0.1% γ-globulin (Sigma) solution. […] Controls included appropriate isotype matched antibodies, unstained cells, and cells stained only with secondary conjugated antibody. All incubations with antibodies were performed for 30 mins at 4° C., after which the cells were washed with the staining buffer. Samples that were stained with unconjugated primary antibodies were incubated for an additional 30 mins at 4° C. with secondary conjugated PE or -APC labeled antibodies. See Table IB for a list of secondary antibodies used. Washed cells were pelleted and resuspended in the staining buffer, and the cell surface molecules were identified using a FACS Array (BD Biosciences) instrument, collecting at least 10,000 events. […]

EXPRES 01 cells = assay: CXCR4 expression by FACS after DE differentiation; format: cell-based, human; conditions: passage 19, day 4; 100 nM GSK-3B inhibitor IX with 0.5% FBS, 20 ng/ml WNT-3a, 100 ng/ml activin-A (about 17% in earlier protocol without inhibitor)
Procedure: as §1

EXPRES cells = assay: Population doubling time of EXPRES cells in growth media; format: cell-based, human; conditions: H9-derived EXPRES cells on TCPS, hypoxic; IGF-I at 50 ng/ml added to growth media (DMEM-F12+2% FBS+100 ng/ml activin-A+20 ng/ml WNT-3A)
Procedure: Cells from the human embryonic stem cell lines H1 and H9 various passages (Passage 30-54) were cultured under hypoxic conditions (approximately 3% 02) for at least three passages. The cells were cultured in MEF-CM supplemented with 8 ng/ml of bFGF and plated on MATRIGEL coated plates according to Example 1. The cells were exposed to the DE protocol outlined in Example 5. At days 3-6, the cultures were exposed to TrypLE™ Express solution (Invitrogen, CA) for 5 mins. Released cells were resuspended in DMEM-F12+2% FBS medium, recovered by centrifugation, and counted using a hemocytometer. The released cells were seeded at 1000-10,000 cells/cm^2 on tissue culture polystyrene (TCPS) treated flasks and cultured in DMEM-F12+2% FBS+100 ng/ml activin-A+20 ng/ml WNT-3A under hypoxic conditions (approximately 3% O2) at 37° C. in standard tissue culture incubator. The TCPS flaks were not coated with MATRIGEL or other extracellular matrix proteins. The media was changed daily. In some cultures, the media was further supplemented with 10-50 ng/ml of IGF-I (insulin growth factor-I from R&D Systems, MN) or 1×ITS (Insulin, transferrin, and selenium from Invitrogen, Ca). In some of the culture conditions the basal media (DM-F12+2% FBS) was further supplemented with 0.1 mM mercaptoethanol (Invitrogen, CA) and non-essential amino acids (1×, NEAA from Invitrogen, CA). […]

EXPRES 03 cells = assay: Proliferation and cell cycle analysis (BRDU incorporation, 7AAD); format: cell-based, human
Procedure: Methods: Cells were seeded at 5,000-10,000 cells/cm^2 in Cell Bind tissue culture flasks (Corning) and cultured for 2-4 days. EXPRES 03 cells were cultured either in growth medium containing 2% FBS in DMEM/F12 and Activin-A (100 ng/ml), wnt3a (10-20 ng/ml) and IGF (50 ng/ml). For comparative proliferation analysis, IGF was sometimes omitted from the growth factor cocktail. Cell proliferation was analyzed using the APC BRDU Flow kit according to the Manufacturer's recommendations (BD Biosciences, San Diego, Calif.). Briefly, cells were pulsed with BRDU for 1-2 hrs at the end of culture period, released using Tryple E Express and counted. Cells were fixed in BD Cytofix/Cytosperm Buffer, incubated for 30 min, followed by incubation with BD Cytoperm buffer for 10 minutes on ice. Cells were then treated with DNAse for 1 hr at 37° C. to expose incorporated BRDU, followed by staining with APC conjugated anti-BRDU antibody. For cell cycle analysis, cells were stained with 7AAD, and analyzed on FACS Array.

[4] = addition of 50 ng/ml IGF-I and withdrawal of Activin-A and WNT-3A

## WNT3A
[1]; WNT3A added to growth media containing activin-A
  expression of DE markers: significant boost

## C[C@@H](N)[C@H]1CC[C@H](C(=O)Nc2ccncc2)CC1 [Y-27632]
[2]
  number of attached cells: significantly larger number of attached cells

## CO[C@@]12[C@H](COC(N)=O)C3=C(C(=O)C(C)=C(N)C3=O)N1C[C@@H]1N[C@@H]12 [mitomycin, mitomycin C]
[3]
  cells in G2/M phase: 64%

## O=C1Nc2cc(Br)ccc2/C1=C1/Nc2ccccc2/C1=N\O [GSK-3B inhibitor IX]
EXPRES 02 cells
  CXCR4 positive cells: approximately 86%
EXPRES 01 cells
  CXCR4 positive cells: approximately 57%

## IGF-I: insulin growth factor-I from R&D Systems; recombinant human IGF-1
EXPRES cells
  population doubling time: approximately 55 hrs
EXPRES 03 cells; BRDU exposure for 1 hour or more
  frequency of cells in S-phase, presence versus absence of IGF: only marginal differences
EXPRES 03 cells; IGF 50 ng/ml, after 3-4 days
  number of cells grown in presence of IGF relative to absence of IGF: 2-3 times
[1]; [4]
  expression of DE markers along with OCT-4: precipitous drop
  expression of visceral endoderm markers, such as SOX-7 and AFP: increase
